Results on seven compounds are retold here after article PMC8147998, “Apigenin and Structurally Related Flavonoids Allosterically Potentiate the Function of Human α7-Nicotinic Acetylcholine Receptors Expressed in SH-EP1 Cells” (Cells, 2021).

SMILES strings stand for the structures. Read-outs that look alike come from different tables or passages of the source.

In this experiment the target is T1, α7 human nicotinic acetylcholine receptor (α7 nACh receptor) (Homo sapiens, UniProt P36544).
T1 construct: gene CHRNA7; homomeric receptor stably expressed in SH-EP1 cells
T1 sequence (P36544 23-502): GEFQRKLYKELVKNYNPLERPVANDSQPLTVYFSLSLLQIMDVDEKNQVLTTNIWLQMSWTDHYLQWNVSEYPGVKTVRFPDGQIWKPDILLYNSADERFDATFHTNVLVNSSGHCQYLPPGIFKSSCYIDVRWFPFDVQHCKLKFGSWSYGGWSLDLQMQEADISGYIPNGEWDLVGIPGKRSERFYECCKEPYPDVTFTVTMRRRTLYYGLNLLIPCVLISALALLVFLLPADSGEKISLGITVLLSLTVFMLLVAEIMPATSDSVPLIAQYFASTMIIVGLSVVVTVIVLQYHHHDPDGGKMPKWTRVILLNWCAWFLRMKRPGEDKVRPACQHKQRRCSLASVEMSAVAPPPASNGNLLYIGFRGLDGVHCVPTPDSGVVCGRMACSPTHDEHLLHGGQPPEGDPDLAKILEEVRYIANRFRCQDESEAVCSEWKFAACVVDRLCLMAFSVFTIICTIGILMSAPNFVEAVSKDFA
The experiment can be described thus: Fluo-4 Ca2+ transient potentiation in SH-EP1 cells ([…] ACh); no change in […]-α-bungarotoxin binding. The class given is cell-based.

Setting [1] is: SH-EP1, read-out: % potentiation at 10 μM.

For the compound `O=c1cc(-c2ccc(O)cc2)oc2cc(O)cc(O)c12` [apigenin], the activation at 10 µM under setting [1] is 48%.

With `O=c1c(-c2ccc(O)cc2)coc2cc(O)cc(O)c12` [genistein], under setting [1], the activation at 10 µM turned out to be 83%.

On to `O=c1c(O)c(-c2ccc(O)c(O)c2)oc2c(O)c(O)cc(O)c12` [gossypetin], for which, under setting [1], the activation at 10 µM was 65%.

Take `O=c1c(O)c(-c2ccc(O)cc2)oc2cc(O)cc(O)c12` [kaempferol]: under setting [1], the activation at 10 µM is 81%.

Take `O=c1cc(-c2ccc(O)c(O)c2)oc2cc(O)cc(O)c12` [luteolin]: under setting [1], the activation at 10 µM turned out to be 72%.

Regarding `O=C(CCc1ccc(O)cc1)c1c(O)cc(O)cc1O` [phloretin], under setting [1], the activation at 10 µM stood at 112%.

Turning to `O=c1c(O)c(-c2ccc(O)c(O)c2)oc2cc(O)cc(O)c12` [quercetin], the activation at 10 µM (SH-EP1; read-out: % potentiation at 10 μM) is 73%.
